Among the data in patent US11420958B2, “Aryl and heteroaryl substituted indole compounds” (BRISTOL-MYERS SQUIBB COMPANY, priority 2017, dated 2022) are IC50 values, retold here.

What all share (format): cell-based
One assay deals with human TLR8 (Homo sapiens (Human), UniProt Q9NR97). Kind of assay: TLR8 inhibition reporter assay (HEK-Blue, SEAP). Particulars: HEK-Blue cells overexpressing human TLR8, R848 15.9 μM stimulation. A digest of the protocol: (§1)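 Cells are treated with compound over a 0.05 nM–50 μM final range for 30 min at room temperature before agonist addition: gardiquimod at 7.5 μM for TLR7, R848 at 15.9 μM for TLR8, ODN2006 at 5 nM for TLR9. SEAP is measured after 22 h at 37 °C.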
A general note: A reporter such as luciferase makes a cellular process visible.

The target in a further assay is human TLR9 (Homo sapiens (Human), UniProt Q9NR96). Kind of assay: TLR9 inhibition reporter assay (HEK-Blue, SEAP). The settings on record: HEK-Blue cells overexpressing human TLR9, ODN2006 5 nM stimulation. The method, boiled down:
as §1

The next assay has as its target human TLR7 (Homo sapiens (Human), UniProt Q9NYK1). In words: TLR7 inhibition reporter assay (HEK-Blue, SEAP). Particulars: HEK-Blue cells overexpressing human TLR7, gardiquimod 7.5 μM stimulation. A digest of the protocol: as §1

Sequence of human TLR7 (Q9NYK1 27-1049): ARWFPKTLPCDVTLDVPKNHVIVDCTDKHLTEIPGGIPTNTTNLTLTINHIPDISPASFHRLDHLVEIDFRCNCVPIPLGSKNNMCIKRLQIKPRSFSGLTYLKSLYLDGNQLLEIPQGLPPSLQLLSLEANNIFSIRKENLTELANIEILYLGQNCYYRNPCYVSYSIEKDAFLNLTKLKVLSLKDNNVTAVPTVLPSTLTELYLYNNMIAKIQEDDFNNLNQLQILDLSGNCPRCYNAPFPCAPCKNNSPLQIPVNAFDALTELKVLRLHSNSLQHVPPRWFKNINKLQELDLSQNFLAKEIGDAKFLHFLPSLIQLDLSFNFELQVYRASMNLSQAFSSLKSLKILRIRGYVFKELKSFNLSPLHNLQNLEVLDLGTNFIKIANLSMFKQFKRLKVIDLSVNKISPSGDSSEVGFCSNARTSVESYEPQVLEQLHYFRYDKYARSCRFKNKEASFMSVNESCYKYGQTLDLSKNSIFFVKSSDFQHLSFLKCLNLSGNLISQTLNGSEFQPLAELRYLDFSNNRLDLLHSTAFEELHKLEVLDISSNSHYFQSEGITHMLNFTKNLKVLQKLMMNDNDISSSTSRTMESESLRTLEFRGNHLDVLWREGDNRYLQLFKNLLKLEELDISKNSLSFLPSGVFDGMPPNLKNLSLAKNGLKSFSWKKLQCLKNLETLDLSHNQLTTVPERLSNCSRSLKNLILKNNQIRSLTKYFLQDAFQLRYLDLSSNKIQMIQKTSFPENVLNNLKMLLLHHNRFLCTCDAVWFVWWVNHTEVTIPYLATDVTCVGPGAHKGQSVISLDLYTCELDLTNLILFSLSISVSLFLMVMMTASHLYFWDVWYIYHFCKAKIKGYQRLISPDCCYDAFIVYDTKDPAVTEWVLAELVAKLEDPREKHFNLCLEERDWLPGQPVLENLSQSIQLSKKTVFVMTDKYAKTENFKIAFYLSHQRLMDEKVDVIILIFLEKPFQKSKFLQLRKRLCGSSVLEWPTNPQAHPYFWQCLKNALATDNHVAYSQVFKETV
Sequence of human TLR9 (Q9NR96 26-1032): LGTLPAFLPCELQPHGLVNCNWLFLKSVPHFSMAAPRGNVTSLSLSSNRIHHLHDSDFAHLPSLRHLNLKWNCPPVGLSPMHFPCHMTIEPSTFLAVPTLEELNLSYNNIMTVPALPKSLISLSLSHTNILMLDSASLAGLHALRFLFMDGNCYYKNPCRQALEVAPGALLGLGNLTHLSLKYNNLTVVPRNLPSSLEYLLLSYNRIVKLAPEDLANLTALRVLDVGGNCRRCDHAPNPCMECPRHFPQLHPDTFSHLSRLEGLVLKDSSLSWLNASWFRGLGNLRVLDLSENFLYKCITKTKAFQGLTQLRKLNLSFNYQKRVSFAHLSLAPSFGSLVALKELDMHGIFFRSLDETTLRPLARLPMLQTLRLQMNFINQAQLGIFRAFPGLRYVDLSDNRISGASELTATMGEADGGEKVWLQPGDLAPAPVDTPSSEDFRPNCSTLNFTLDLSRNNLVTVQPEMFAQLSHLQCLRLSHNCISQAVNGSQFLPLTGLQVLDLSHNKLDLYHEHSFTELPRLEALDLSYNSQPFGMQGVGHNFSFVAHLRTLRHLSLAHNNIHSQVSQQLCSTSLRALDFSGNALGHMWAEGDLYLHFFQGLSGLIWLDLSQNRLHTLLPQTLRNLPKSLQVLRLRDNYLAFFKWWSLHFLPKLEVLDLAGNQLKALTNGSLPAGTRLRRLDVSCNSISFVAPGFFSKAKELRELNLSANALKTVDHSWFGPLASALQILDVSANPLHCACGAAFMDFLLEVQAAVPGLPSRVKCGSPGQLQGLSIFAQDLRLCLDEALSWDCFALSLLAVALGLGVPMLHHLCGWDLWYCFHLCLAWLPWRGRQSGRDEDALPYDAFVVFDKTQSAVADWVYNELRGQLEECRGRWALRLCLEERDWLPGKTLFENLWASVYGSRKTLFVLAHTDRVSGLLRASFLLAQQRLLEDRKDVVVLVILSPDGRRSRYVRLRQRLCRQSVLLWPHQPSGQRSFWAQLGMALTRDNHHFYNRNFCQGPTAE
Sequence of human TLR8 (Q9NR97 27-1041): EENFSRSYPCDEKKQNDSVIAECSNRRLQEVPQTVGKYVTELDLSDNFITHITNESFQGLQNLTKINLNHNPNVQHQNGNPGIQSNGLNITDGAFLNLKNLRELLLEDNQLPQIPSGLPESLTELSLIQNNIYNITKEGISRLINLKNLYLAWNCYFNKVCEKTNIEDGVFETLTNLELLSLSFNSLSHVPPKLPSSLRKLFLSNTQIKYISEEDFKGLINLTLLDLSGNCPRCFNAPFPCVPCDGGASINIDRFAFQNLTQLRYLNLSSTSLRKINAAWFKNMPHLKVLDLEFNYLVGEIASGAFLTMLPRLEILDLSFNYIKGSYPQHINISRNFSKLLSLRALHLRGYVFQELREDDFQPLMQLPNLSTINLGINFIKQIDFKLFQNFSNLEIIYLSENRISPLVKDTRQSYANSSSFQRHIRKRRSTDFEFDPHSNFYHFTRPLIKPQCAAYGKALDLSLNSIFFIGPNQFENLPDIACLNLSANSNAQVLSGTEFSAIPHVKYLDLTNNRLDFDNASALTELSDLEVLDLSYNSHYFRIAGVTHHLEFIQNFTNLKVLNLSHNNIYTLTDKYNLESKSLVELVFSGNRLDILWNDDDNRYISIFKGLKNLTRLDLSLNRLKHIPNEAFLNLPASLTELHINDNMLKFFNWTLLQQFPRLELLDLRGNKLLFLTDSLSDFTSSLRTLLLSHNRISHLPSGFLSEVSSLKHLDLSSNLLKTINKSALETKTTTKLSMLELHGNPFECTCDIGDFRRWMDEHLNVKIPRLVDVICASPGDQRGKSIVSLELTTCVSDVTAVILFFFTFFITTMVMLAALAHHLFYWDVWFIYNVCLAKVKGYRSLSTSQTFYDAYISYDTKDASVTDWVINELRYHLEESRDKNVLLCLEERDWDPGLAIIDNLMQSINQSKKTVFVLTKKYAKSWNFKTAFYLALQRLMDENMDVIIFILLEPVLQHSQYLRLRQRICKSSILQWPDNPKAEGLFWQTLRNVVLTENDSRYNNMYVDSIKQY

With `COc1ccc(-c2[nH]c3ccc(-c4nnc(C[C@@H]5CCCN5)o4)cc3c2C(C)C)cc1OC` [Example 51, (S)-2-(2-(3,4-dimethoxyphenyl)-3-isopropyl-1H-indol-5-yl)-5-(pyrrolidin-2-ylmethyl)-1,3,4-oxadiazole], the concentration for half-maximal inhibition (IC50) on human TLR8 came out at 7.7 nM; against human TLR9 it was 1070 nM; at human TLR7, 60 nM.
Turning to `COc1ccc(-c2[nH]c3ccc(-c4nnc([C@H]5CCCNC5)o4)cc3c2C(C)C)cc1OC` [Example 52, (S)-2-(2-(3,4-dimethoxyphenyl)-3-isopropyl-1H-indol-5-yl)-5-(piperidin-3-yl)-1,3,4-oxadiazole], the IC50 turned out to be 6 nM against human TLR8, 770 nM against human TLR9 and 26 nM against human TLR7.
On to `COc1ccc(-c2[nH]c3ccc(-c4nnc(C5CNC5)o4)cc3c2C(C)C)cc1OC` [Example 53, 2-(azetidin-3-yl)-5-(2-(3,4-dimethoxyphenyl)-3-isopropyl-1H-indol-5-yl)-1,3,4-oxadiazole], for which the concentration for half-maximal inhibition (IC50) against human TLR8 amounted to 78 nM; at human TLR9 it was 3010 nM; against human TLR7 it was 381 nM.
`COc1ccc(-c2[nH]c3ccc(-c4nnc(C[C@H]5CCCCN5)o4)cc3c2C(C)C)cc1OC` [Example 54, (R)-2-(2-(3,4-dimethoxyphenyl)-3-isopropyl-1H-indol-5-yl)-5-(piperidin-2-ylmethyl)-1,3,4-oxadiazole]: the values for the IC50 on human TLR8, against human TLR9 and against human TLR7 were 3.9 nM, 706 nM and 75 nM, respectively.
Consider `COc1ccc(-c2[nH]c3ccc(-c4nnc([C@@H]5CCCNC5)o4)cc3c2C(C)C)cc1OC` [Example 55, (R)-2-(2-(3,4-dimethoxyphenyl)-3-isopropyl-1H-indol-5-yl)-5-(piperidin-3-yl)-1,3,4-oxadiazole], for which the 50% inhibitory concentration (IC50) was found to be 8.2 nM on human TLR8, 1260 nM on human TLR9 and 32 nM on human TLR7.
In the case of `COc1ccc(-c2[nH]c3ccc(-c4nnc([C@@H]5CCCNC5)o4)cc3c2CC(F)(F)F)cc1OC` [Example 56, (R)-2-(2-(3,4-dimethoxyphenyl)-3-(2,2,2-trifluoroethyl)-1H-indol-5-yl)-5-(piperidin-3-yl)-1,3,4-oxadiazole], the IC50 on human TLR8 turned out to be 25 nM; at human TLR9, 1270 nM; at human TLR7, 47 nM.
As for `Cc1cc(-c2[nH]c3ccc(-c4nnc(C(=O)NC5CCN(C(C)C)CC5)o4)cc3c2C(C)C)ccn1` [Example 58, 5-(3-isopropyl-2-(2-methylpyridin-4-yl)-1H-indol-5-yl)-N-(1-isopropylpiperidin-4-yl)-1,3,4-oxadiazole-2-carboxamide], the IC50 at human TLR8 was found to be 3.8 nM; on human TLR9, 303 nM; on human TLR7, 50 nM.
As for `COc1ccc(-c2[nH]c3ccc(-c4nnc(C(=O)NC5CCN(C(C)C)CC5)o4)cc3c2C(C)C)cc1OC` [Example 59, 5-(2-(3,4-dimethoxyphenyl)-3-isopropyl-1H-indol-5-yl)-N-(1-isopropylpiperidin-4-yl)-1,3,4-oxadiazole-2-carboxamide], the values for the half-inhibitory concentration (IC50) against human TLR8, against human TLR9 and at human TLR7 were 6.2 nM, 936 nM and 55 nM, respectively.
`Cc1cc(-c2[nH]c3ccc(-c4nnc(C(=O)N5CC6CNCC6C5)o4)cc3c2C(C)C)ccn1` (stereo not drawn) [Example 60, (hexahydropyrrolo[3,4-c]pyrrol-2(1H)-yl)(5-(3-isopropyl-2-(2-methylpyridin-4-yl)-1H-indol-5-yl)-1,3,4-oxadiazol-2-yl)methanone]: the IC50 came out at 6 nM on human TLR8, 283 nM against human TLR9 and 194 nM at human TLR7.
On the same counts, the results for `COc1ccc(-c2[nH]c3ccc(-c4nnc(C(=O)N5CC6CNCC6C5)o4)cc3c2C(C)C)cc1OC` (stereo not drawn) [Example 61, (5-(2-(3,4-dimethoxyphenyl)-3-isopropyl-1H-indol-5-yl)-1,3,4-oxadiazol-2-yl)(hexahydropyrrolo[3,4-c]pyrrol-2(1H)-yl)methanone] are 6.9 nM, 454 nM and 51 nM.
In the case of `Cc1cc(-c2[nH]c3ccc(-c4nnc(C5CCN(C(=O)CN(C)C)CC5)o4)cc3c2C(C)C)ccn1` [Example 62, 2-(dimethylamino)-1-(4-(5-(3-isopropyl-2-(2-methylpyridin-4-yl)-1H-indol-5-yl)-1,3,4-oxadiazol-2-yl)piperidin-1-yl)ethan-1-one], the IC50 at human TLR8 is 2.2 nM; at human TLR9 it was 743 nM; against human TLR7, 31 nM.
With `COc1ccc(-c2[nH]c3ccc(-c4nnc(C)o4)cc3c2C(C)C)cc1OC` [Example 63, 2-(2-(3,4-dimethoxyphenyl)-3-isopropyl-1H-indol-5-yl)-5-methyl-1,3,4-oxadiazole], the IC50 against human TLR8 is 235 nM; against human TLR9, above 50000 nM; against human TLR7, 483 nM.
With `COc1ccc(-c2[nH]c3ccc(-c4nnc(CC(F)(F)F)o4)cc3c2C(C)C)cc1OC` [Example 64, 2-(2-(3,4-dimethoxyphenyl)-3-isopropyl-1H-indol-5-yl)-5-(2,2,2-trifluoroethyl)-1,3,4-oxadiazole], the IC50 was 340 nM on human TLR8, above 50000 nM at human TLR9 and 1040 nM against human TLR7.
With `Cc1cc(-c2[nH]c3ccc(-c4nnc(C5CCN(CC(=O)N(C)C)CC5)o4)cc3c2C(C)C)ccn1` [Example 65, 2-(4-(5-(3-isopropyl-2-(2-methylpyridin-4-yl)-1H-indol-5-yl)-1,3,4-oxadiazol-2-yl)piperidin-1-yl)-N,N-dimethylacetamide], the figures for the concentration for half-maximal inhibition (IC50) at human TLR8, at human TLR9 and against human TLR7 were 2.9 nM, 2000 nM and 97 nM, respectively.
As to `Cc1cc(-c2[nH]c3ccc(-c4nnc(C5CCNCC5)o4)cc3c2C(C)C)ccn1` [Example 66, 2-(3-isopropyl-2-(2-methylpyridin-4-yl)-1H-indol-5-yl)-5-(piperidin-4-yl)-1,3,4-oxadiazole], the IC50 amounted to 38 nM against human TLR8, 2310 nM against human TLR9 and 53 nM at human TLR7.
Consider `CNCCN1CCC(c2nnc(-c3ccc4[nH]c(-c5ccc(OC)c(OC)c5)c(CC(F)(F)F)c4c3)o2)CC1` [Example 67, 2-(4-(5-(2-(3,4-dimethoxyphenyl)-3-(2,2,2-trifluoroethyl)-1H-indol-5-yl)-1,3,4-oxadiazol-2-yl)piperidin-1-yl)-N-methylethan-1-amine], for which the figures for the IC50 at human TLR8, on human TLR9 and on human TLR7 were 57 nM, 316 nM and 244 nM, respectively.
On to `Cc1cc(-c2[nH]c3ccc(-c4nnc([C@@H]5CSCN5)o4)cc3c2C(C)C)ccn1` [Example 68, (R)-2-(3-isopropyl-2-(2-methylpyridin-4-yl)-1H-indol-5-yl)-5-(thiazolidin-4-yl)-1,3,4-oxadiazole], for which the results for the concentration for half-maximal inhibition (IC50) on human TLR8, at human TLR9 and at human TLR7 were 41 nM, 31600 nM and 320 nM, respectively.
As to `Cc1cc(-c2[nH]c3ccc(-c4nnc([C@H]5CCCNC5)o4)cc3c2C(C)C)ccn1` [Example 69, (S)-2-(3-isopropyl-2-(2-methylpyridin-4-yl)-1H-indol-5-yl)-5-(piperidin-3-yl)-1,3,4-oxadiazole], the values for the IC50 on human TLR8, on human TLR9 and against human TLR7 were 0.9 nM, 687 nM and 16 nM, respectively.
On the same counts, the results for `Cc1cc(-c2[nH]c3ccc(-c4nnc(C5CNCCO5)o4)cc3c2C(C)C)ccn1` (stereo not drawn) [Example 70, 2-(5-(3-isopropyl-2-(2-methylpyridin-4-yl)-1H-indol-5-yl)-1,3,4-oxadiazol-2-yl)morpholine] are 6.7 nM, 5040 nM and 38 nM.
Take `Cc1cc(-c2[nH]c3ccc(-c4nnc(C[C@@H]5CCCN5)o4)cc3c2C(C)C)ccn1` [Example 71, (S)-2-(3-isopropyl-2-(2-methylpyridin-4-yl)-1H-indol-5-yl)-5-(pyrrolidin-2-ylmethyl)-1,3,4-oxadiazole]: the half-maximal inhibitory concentration (IC50) was determined as 1.4 nM on human TLR8, 6910 nM at human TLR9 and 39 nM on human TLR7.
Take `Cc1cc(-c2[nH]c3ccc(-c4nnc([C@H]5Cc6ccccc6CN5)o4)cc3c2C(C)C)ccn1` [Example 72, (R)-2-(3-isopropyl-2-(2-methylpyridin-4-yl)-1H-indol-5-yl)-5-(1,2,3,4-tetrahydroisoquinolin-3-yl)-1,3,4-oxadiazole]: the IC50 came to 45 nM on human TLR8, 1870 nM on human TLR9 and 799 nM against human TLR7.
Take `Cc1cc(-c2[nH]c3ccc(-c4nnc(Cc5c[nH]c6ccccc56)o4)cc3c2C(C)C)ccn1` [Example 73, 2-((1H-indol-3-yl)methyl)-5-(3-isopropyl-2-(2-methylpyridin-4-yl)-1H-indol-5-yl)-1,3,4-oxadiazole]: the IC50 is 1290 nM at human TLR8, above 50000 nM against human TLR9 and 2290 nM on human TLR7.
With `Cc1cc(-c2[nH]c3ccc(-c4nnc(Cc5cccnc5)o4)cc3c2C(C)C)ccn1` [Example 74, 2-(3-isopropyl-2-(2-methylpyridin-4-yl)-1H-indol-5-yl)-5-(pyridin-3-ylmethyl)-1,3,4-oxadiazole], the IC50 on human TLR8 came to 21 nM; at human TLR9 it was 15800 nM; at human TLR7 it was 132 nM.
For `Cc1cc(-c2[nH]c3ccc(-c4nnc(CC(F)(F)F)o4)cc3c2C(C)C)ccn1` [Example 75, 2-(3-isopropyl-2-(2-methylpyridin-4-yl)-1H-indol-5-yl)-5-(2,2,2-trifluoroethyl)-1,3,4-oxadiazole], the half-inhibitory concentration (IC50) against human TLR8 was 72 nM; at human TLR9 it was above 50000 nM; against human TLR7 it was 576 nM.
Consider `Cc1cc(-c2[nH]c3ccc(-c4nnc(Cc5nnn[nH]5)o4)cc3c2C(C)C)ccn1` [Example 76, 2-((1H-tetrazol-5-yl)methyl)-5-(3-isopropyl-2-(2-methylpyridin-4-yl)-1H-indol-5-yl)-1,3,4-oxadiazole], for which the concentration for half-maximal inhibition (IC50) is 481 nM against human TLR8, above 50000 nM on human TLR9 and 1900 nM at human TLR7.

Broadly, the IC50 is the concentration that gives 50% inhibition. Low values mean greater potency, high ones weaker potency.
